# Reference: ChEMBL document CHEMBL4819046, “One pot synthesis, in silico study and evaluation of some novel flavonoids as potent topoisomerase II inhibitors” (Bioorg Med Chem Lett, 2021)
# Activity calls are given as the source filed them. The calls are words filed in the database; no cut-off is given here.
# What was measured:
# MCF-10A [1] = experiment: Cytotoxicity against human MCF-10A cells at 50 uM after 72 hrs by MTT assay; format: cell-based
# MCF7 = experiment: Cytotoxicity against human MCF7 cells assessed as inhibition of cell proliferation after 72 hrs by MTT assay; format: functional, cell-based; conditions: MCF7, 72 h
# A549 = experiment: Cytotoxicity against human A549 cells assessed as inhibition of cell proliferation after 72 hrs by MTT assay; format: functional, cell-based; conditions: A549, 72 h
# HepG2 = experiment: Cytotoxicity against human HepG2 cells assessed as inhibition of cell proliferation after 72 hrs by MTT assay; format: functional, cell-based; conditions: HepG2, 72 h
# MCF-10A [2] = experiment: Cytotoxicity against human MCF-10A cells assessed as reduction in cell viability after 72 hrs by MTT assay; format: cell-based
# [3] = target: T1, DNA topoisomerase 2-alpha (Homo sapiens, UniProt P11388); experiment: Inhibition of human topoisomerase-2 alpha in human A498 cells assessed as decrease in relaxation of supercoiled DNA at 10 uM; format: cell-based
# T1 sequence (P11388 whole entry): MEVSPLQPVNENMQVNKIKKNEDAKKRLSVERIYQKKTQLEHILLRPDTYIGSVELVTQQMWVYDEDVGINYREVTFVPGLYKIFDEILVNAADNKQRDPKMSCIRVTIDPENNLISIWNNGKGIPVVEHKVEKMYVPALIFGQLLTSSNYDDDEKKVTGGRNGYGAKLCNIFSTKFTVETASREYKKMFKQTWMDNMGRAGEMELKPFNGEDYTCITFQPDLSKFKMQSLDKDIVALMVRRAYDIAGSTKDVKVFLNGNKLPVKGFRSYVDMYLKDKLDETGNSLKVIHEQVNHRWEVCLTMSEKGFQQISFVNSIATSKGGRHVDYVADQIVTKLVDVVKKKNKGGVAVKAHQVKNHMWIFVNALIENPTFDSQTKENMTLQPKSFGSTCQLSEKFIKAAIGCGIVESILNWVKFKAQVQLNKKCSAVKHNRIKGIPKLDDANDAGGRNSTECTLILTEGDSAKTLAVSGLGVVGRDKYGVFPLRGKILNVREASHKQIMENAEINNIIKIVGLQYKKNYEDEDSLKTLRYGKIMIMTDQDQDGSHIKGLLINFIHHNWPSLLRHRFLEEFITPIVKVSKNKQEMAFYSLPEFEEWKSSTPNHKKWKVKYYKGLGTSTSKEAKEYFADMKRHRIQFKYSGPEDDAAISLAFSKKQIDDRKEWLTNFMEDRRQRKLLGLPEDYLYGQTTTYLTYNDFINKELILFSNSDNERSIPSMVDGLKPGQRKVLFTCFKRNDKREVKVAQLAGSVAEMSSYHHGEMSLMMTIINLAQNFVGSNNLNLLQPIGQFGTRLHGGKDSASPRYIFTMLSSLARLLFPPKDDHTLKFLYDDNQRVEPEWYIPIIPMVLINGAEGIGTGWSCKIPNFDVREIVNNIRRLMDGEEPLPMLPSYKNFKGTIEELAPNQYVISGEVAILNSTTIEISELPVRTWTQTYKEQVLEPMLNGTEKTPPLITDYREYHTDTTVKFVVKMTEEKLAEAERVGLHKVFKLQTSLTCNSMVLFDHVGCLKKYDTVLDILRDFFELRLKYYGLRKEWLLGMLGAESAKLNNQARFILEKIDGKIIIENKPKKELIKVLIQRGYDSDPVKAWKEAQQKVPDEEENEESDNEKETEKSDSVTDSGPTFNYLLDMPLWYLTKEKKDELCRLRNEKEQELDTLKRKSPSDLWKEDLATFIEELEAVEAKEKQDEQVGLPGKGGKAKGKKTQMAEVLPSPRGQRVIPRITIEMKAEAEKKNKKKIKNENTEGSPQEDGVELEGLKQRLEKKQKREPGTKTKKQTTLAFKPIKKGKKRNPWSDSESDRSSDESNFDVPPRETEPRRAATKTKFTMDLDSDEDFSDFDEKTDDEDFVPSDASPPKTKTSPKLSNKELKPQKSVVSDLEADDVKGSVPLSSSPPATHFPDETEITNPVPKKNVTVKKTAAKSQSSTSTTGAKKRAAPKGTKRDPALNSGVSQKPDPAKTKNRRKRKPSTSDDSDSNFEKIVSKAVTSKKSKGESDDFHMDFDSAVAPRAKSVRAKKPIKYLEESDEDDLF
# MCF-10A [4] = experiment: Cytotoxicity against human MCF-10A cells at <= 25 uM after 72 hrs by MTT assay; format: cell-based
# MCF-10A [5] = experiment: Cytotoxicity against human MCF-10A cells at 100 uM after 72 hrs by MTT assay; format: cell-based
# [6] = target: T1, DNA topoisomerase 2-alpha; experiment: Inhibition of human topoisomerase-2alpha assessed as reduction in pBR322 DNA relaxation by gel electrophoresis method
Structure (SMILES),Activity (MCF-10A [1]),IC50 (MCF7),IC50 (A549),IC50 (HepG2),IC50 (MCF-10A [2]),IC50 [3],Activity (MCF-10A [4]),Activity (MCF-10A [5]),inhibition [6]
Cc1cc2occ(-c3nc(-c4ccccc4)c(-c4ccccc4)n3-c3ccc(Br)cc3)c(=O)c2cc1Cl,Toxic,1.56 µM,25 µM,6.25 µM,> 100 µM,17.1 µM,Non-Toxic,–,–
Cc1cc2occ(-c3nc(-c4ccccc4)c(-c4ccccc4)n3-c3cccc(Cl)c3)c(=O)c2cc1Cl,–,6.25 µM,25 µM,25 µM,–,–,Non-Toxic,Toxic,–
Cc1cccc(-n2c(-c3coc4cc(C)c(Cl)cc4c3=O)nc(-c3ccccc3)c2-c2ccccc2)c1,–,12.5 µM,12.5 µM,6.25 µM,–,–,Non-Toxic,Toxic,–
COc1ccccc1-n1c(-c2coc3cc(C)c(Cl)cc3c2=O)nc(-c2ccccc2)c1-c1ccccc1,–,25 µM,12.5 µM,12.5 µM,–,–,Non-Toxic,Toxic,–
Cc1cc2occ(-c3nc(-c4ccccc4)c(-c4ccccc4)n3-c3ccc(Cl)cc3)c(=O)c2cc1Cl,Toxic,12.5 µM,12.5 µM,1.56 µM,92 µM,–,Non-Toxic,–,–
N#CC1=C(N)Oc2c(c(=O)oc3ccccc23)C1C1CC1 (configuration not stated),–,25 µM,25 µM,12.5 µM,–,–,Non-Toxic,Toxic,–
Cc1cc2occ(-c3nc(-c4ccccc4)c(-c4ccccc4)n3-c3ccc([N+](=O)[O-])cc3)c(=O)c2cc1Cl,–,6.25 µM,3.12 µM,25 µM,> 100 µM,48.4 µM,Non-Toxic,Toxic,–
Cc1cc2occ(-c3nc(-c4ccccc4)c(-c4ccccc4)n3-c3ccccc3Cl)c(=O)c2cc1Cl,–,3.12 µM,12.5 µM,6.25 µM,–,–,Non-Toxic,Toxic,–
COc1cccc(-n2c(-c3coc4cc(C)c(Cl)cc4c3=O)nc(-c3ccccc3)c2-c2ccccc2)c1,–,25 µM,6.25 µM,6.25 µM,–,–,Non-Toxic,Toxic,–
Cc1cc2occ(C3C(C#N)=C(N)Oc4c3c(=O)oc3ccccc43)c(=O)c2cc1Cl (configuration not stated),–,6.25 µM,6.25 µM,12.5 µM,–,–,Non-Toxic,Toxic,–
N#CC1=C(N)Oc2c(c(=O)oc3ccccc23)C1c1cc(=O)c2ccccc2o1 (configuration not stated),Toxic,12.5 µM,1.56 µM,6.25 µM,90 µM,26.4 µM,Non-Toxic,–,–
COc1ccc(C2C(C#N)=C(N)Oc3c2c(=O)oc2ccccc32)c(OC)c1 (configuration not stated),–,25 µM,6.25 µM,3.12 µM,–,–,Non-Toxic,Toxic,–
Cc1cc2occ(-c3nc(-c4ccccc4)c(-c4ccccc4)n3-c3ccc(Cl)c(Cl)c3)c(=O)c2cc1Cl,Toxic,1.56 µM,6.25 µM,12.5 µM,98 µM,39.9 µM,Non-Toxic,–,–
Cc1ccc(-n2c(-c3coc4cc(C)c(Cl)cc4c3=O)nc(-c3ccccc3)c2-c2ccccc2)c(C)c1,–,6.25 µM,6.25 µM,3.12 µM,–,–,Non-Toxic,Toxic,–
Cc1cc2occ(-c3nc(-c4ccccc4)c(-c4ccccc4)n3-c3cccc([N+](=O)[O-])c3)c(=O)c2cc1Cl,Toxic,1.56 µM,6.25 µM,25 µM,–,–,Non-Toxic,–,–
N#CC1=C(N)Oc2c(c(=O)oc3ccccc23)C1c1c2ccccc2cc2ccccc12 (configuration not stated),–,12.5 µM,25 µM,25 µM,–,–,Non-Toxic,Toxic,–
Cc1ccc(-n2c(-c3coc4cc(C)c(Cl)cc4c3=O)nc(-c3ccccc3)c2-c2ccccc2)cc1,–,12.5 µM,12.5 µM,6.25 µM,–,–,Non-Toxic,Toxic,–
N#CC1=C(N)Oc2c(c(=O)oc3ccccc23)C1c1cc2ccccc2s1 (configuration not stated),Toxic,1.56 µM,1.56 µM,6.25 µM,98 µM,10.3 µM,Non-Toxic,–,Active
N#CC1=C(N)Oc2c(c(=O)oc3ccccc23)C1c1c[nH]c2ccccc12 (configuration not stated),Toxic,1.56 µM,1.56 µM,12.5 µM,94 µM,12.4 µM,Non-Toxic,–,Active
N#CC1=C(N)Oc2c(c(=O)oc3ccccc23)C1c1cnc2ccccc2c1 (configuration not stated),Toxic,1.56 µM,6.25 µM,6.25 µM,94 µM,16.7 µM,Non-Toxic,–,–
N#CC1=C(N)Oc2c(c(=O)oc3ccccc23)C1c1cc2ccccc2c2ccccc12 (configuration not stated),–,25 µM,25 µM,25 µM,–,–,Non-Toxic,Toxic,–
